Assay results: paper PMC12340087, “Guanine is an inhibitor of c-jun terminal kinases” (Scientific Reports, 2025)
pIC50: −log10 of the molar value.

Assays:
Assay in all cases: radiometric […]-ATP kinase assay, ATF2 substrate, ATP at apparent Km
Type in all cases: biochemical
JNK1 = target: T1, JNK1 (Homo sapiens, UniProt P45983)
T1 construct: gene MAPK8; untagged JNK1 (amino acids 1-384)

JNK3 = target: T2, JNK3 (Homo sapiens, UniProt P53779)
T2 construct: gene MAPK10; GST-tagged JNK3 (amino acids 1-426)
T2 sequence (P53779 1-426): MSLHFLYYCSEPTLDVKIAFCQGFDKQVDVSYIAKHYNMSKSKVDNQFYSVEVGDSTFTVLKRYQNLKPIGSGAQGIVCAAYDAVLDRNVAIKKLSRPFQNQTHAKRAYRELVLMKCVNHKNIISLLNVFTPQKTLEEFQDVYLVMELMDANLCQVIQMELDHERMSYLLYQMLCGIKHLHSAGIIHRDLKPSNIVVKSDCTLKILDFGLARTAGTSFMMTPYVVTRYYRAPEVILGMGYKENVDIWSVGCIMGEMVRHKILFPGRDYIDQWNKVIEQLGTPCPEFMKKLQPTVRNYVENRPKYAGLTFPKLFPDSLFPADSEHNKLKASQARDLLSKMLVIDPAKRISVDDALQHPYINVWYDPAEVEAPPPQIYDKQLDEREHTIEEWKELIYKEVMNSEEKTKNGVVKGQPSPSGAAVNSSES

JNK2 = target: T3, JNK2 (Homo sapiens, UniProt P45984)
T3 construct: gene MAPK9; untagged JNK2 (amino acids 1-424)
T3 sequence (P45984 whole entry, the tested form may be a part): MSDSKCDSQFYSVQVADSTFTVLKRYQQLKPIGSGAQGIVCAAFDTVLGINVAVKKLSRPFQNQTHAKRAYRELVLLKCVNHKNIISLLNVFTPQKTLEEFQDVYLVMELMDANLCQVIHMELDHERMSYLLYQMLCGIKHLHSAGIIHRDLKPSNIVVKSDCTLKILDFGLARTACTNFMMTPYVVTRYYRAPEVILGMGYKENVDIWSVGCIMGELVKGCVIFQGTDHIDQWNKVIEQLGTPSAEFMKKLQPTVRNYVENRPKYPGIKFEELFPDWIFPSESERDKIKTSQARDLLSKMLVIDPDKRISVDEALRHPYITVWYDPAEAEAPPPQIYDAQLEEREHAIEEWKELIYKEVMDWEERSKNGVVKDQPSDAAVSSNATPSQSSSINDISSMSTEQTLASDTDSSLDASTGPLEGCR

T1 sequence (P45983 1-384 isoform P45983-2): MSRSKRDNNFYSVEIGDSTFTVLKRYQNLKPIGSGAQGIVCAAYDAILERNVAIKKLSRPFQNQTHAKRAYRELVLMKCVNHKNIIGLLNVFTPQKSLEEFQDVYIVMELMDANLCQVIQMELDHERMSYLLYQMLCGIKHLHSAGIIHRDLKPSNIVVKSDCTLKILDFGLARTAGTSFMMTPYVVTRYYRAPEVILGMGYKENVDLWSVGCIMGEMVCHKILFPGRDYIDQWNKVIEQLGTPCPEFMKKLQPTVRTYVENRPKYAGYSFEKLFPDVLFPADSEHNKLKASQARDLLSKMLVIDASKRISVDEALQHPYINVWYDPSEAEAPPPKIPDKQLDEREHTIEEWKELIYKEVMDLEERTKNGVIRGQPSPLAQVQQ

Nc1nc2nc[nH]c2c(=O)[nH]1 [G, guanine]
pIC50 (JNK1): 3.70
pIC50 (JNK3): 3.48
pIC50 (JNK2): 3.74
